Laboratory results published in patent US20220402950A1, “SUBSTITUTED BENZIMIDAZOLES AS PAD4 INHIBITORS” (BRISTOL-MYERS SQUIBB COMPANY, priority 2018, published 2022).

Biological target: human PAD4 (hPAD4) (Homo sapiens, UniProt Q9UM07)
Assay: RFMS Human PAD4 Functional Assay
Type: biochemical
Conditions: hPAD4 RFMS IC50, human PAD4, rapid-fire mass spectrum (RFMS) assay; 5 nM hPAD4, 250 μM BAEE
Method in brief: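 RapidFire ESI-MS quantification, normalised to a modified-citrulline internal standard, after phenyl glyoxal (final 4 mM) derivatisation of the TCA-quenched reaction. The enzyme (10 nM) sat 30 min with compound (up to 50 μM final) before 500 μM BAEE (as added) started a 90 min, 37 °C reaction. Buffer: HEPES pH 7.5, 50 μM calcium, 5 μM TPEN.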

human PAD4 (hPAD4), sequence (Q9UM07 whole entry): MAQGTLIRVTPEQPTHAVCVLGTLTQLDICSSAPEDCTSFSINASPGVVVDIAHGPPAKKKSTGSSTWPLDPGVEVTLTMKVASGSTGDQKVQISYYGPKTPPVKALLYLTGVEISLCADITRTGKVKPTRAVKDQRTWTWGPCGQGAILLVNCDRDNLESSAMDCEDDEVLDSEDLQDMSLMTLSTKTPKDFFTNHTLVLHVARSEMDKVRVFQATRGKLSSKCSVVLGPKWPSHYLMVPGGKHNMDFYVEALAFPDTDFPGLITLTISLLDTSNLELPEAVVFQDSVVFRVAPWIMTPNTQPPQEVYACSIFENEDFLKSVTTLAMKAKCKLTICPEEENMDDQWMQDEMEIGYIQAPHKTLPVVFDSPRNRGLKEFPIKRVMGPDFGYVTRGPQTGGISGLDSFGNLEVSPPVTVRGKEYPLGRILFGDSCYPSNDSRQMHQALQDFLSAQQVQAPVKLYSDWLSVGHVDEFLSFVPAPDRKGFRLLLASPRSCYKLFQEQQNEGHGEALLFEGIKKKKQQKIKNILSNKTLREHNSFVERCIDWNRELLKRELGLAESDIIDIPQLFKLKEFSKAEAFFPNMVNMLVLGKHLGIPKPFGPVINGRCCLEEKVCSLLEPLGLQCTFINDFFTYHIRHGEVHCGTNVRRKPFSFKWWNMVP

Row | Compound | IC50 [µM]
1 | COc1cc(C(=O)N2C[C@H]3CC[C@@H]2[C@@H]3N)cc2nc(-c3cc4cccc(C5CCN(C(N)=O)CC5)c4n3CC3CC3)n(C)c12 [Example 251, 4-(2-(5-((1R,4R,7R)-7-amino-2-azabicyclo[2.2.1]heptane-2-carbonyl)-7-methoxy-1-methyl-1H-benzo[d]imidazol-2-yl)-1-(cyclopropylmethyl)-1H-indol-7-yl)piperidine-1-carboxamide] | 0.02
2 | COc1cc(C(=O)N2C[C@H]3CC[C@@H]2[C@@H]3N)cc2nc(-c3cc4cccc(C5CCN(C(=O)Nc6ccccc6F)CC5)c4n3CC3CC3)n(C)c12 [Example 243, 4-(2-(5-((1R,4R,7R)-7-amino-2-azabicyclo[2.2.1]heptane-2-carbonyl)-7-methoxy-1-methyl-1H-benzo[d]imidazol-2-yl)-1-(cyclopropylmethyl)-1H-indol-7-yl)-N-(2-fluorophenyl)piperidine-1-carboxamide] | 0.008
3 | COc1cc(C(=O)N2C[C@H]3CC[C@@H]2[C@@H]3N)cc2nc(-c3cc4cccc(C5CN(C(=O)CCc6ccccc6)C5)c4n3CC3CC3)n(C)c12 [Example 79, 1-[3-(2-{5-[(1R,4R,7R)-7-amino-2-azabicyclo[2.2.1]heptane-2-carbonyl]-7-methoxy-1-methyl-1H-1,3-benzodiazol-2-yl}-1-(cyclopropylmethyl)-1H-indol-7-yl)azetidin-1-yl]-3-phenylpropan-1-one] | 0.012
4 | COc1cc(C(=O)N2C[C@H]3CC[C@@H]2[C@@H]3N)cc2nc(-c3cc4cccc(C5CC(O)C5)c4n3CC3CC3)n(C)c12 (mixture of isomers) [Example 18, cis- and trans-3-(2-{5-[(1R,4R,7R)-7-amino-2-azabicyclo[2.2.1]heptane-2-carbonyl]-7-methoxy-1-methyl-1H-1,3-benzodiazol-2-yl}-1-(cyclopropylmethyl)-1H-indol-7-yl)cyclobutan-1-ol] | 0.071
5 | COc1cc(C(=O)N2C[C@H]3CC[C@@H]2[C@@H]3N)cc2nc(-c3cc4cccc(-c5ccc6c(c5)CNC6=O)c4n3CC3CC3)n(C)c12 [Example 103, 5-(2-{5-[(1R,4R,7R)-7-amino-2-azabicyclo[2.2.1]heptane-2-carbonyl]-7-methoxy-1-methyl-1H-1,3-benzodiazol-2-yl}-1-(cyclopropylmethyl)-1H-indol-7-yl)-2,3-dihydro-1H-isoindol-1-one] | 0.025
6 | COc1cc(C(=O)N2C[C@H]3CC[C@@H]2[C@@H]3N)cc2nc(-c3cc4cccc(C5CCCC5)c4n3CC3CC3)n(C)c12 [Example 6, (1R,4R,7R)-2-{2-[7-cyclopentyl-1-(cyclopropylmethyl)-1H-indol-2-yl]-7-methoxy-1-methyl-1H-1,3-benzodiazole-5-carbonyl}-2-azabicyclo[2.2.1]heptan-7-amine] | 0.19
7 | C=CC(=O)Nc1cccc(-c2cccc3cc(-c4nc5cc(C(=O)N6C[C@H]7CC[C@@H]6[C@@H]7N)cc(OC)c5n4C)n(CC4CC4)c23)c1 [Example 88, N-[3-(2-{5-[(1R,4R,7R)-7-amino-2-azabicyclo[2.2.1]heptane-2-carbonyl]-7-methoxy-1-methyl-1H-1,3-benzodiazol-2-yl}-1-(cyclopropylmethyl)-1H-indol-7-yl)phenyl]prop-2-enamide] | 0.056
8 | COc1cc(C(=O)N2C[C@H]3CC[C@@H]2[C@@H]3N)cc2nc(-c3cc4cccc(C5CCN(C(=O)C(OC)C6CC6)CC5)c4n3CC3CC3)n(C)c12 (stereo partly drawn) [Example 233, 1-(4-(2-(5-((1R,4R,7R)-7-amino-2-azabicyclo[2.2.1]heptane-2-carbonyl)-7-methoxy-1-methyl-1H-benzo[d]imidazol-2-yl)-1-(cyclopropylmethyl)-1H-indol-7-yl)piperidin-1-yl)-2-cyclopropyl-2-methoxyethan-1-one] | 0.063
9 | COc1cc(C(=O)N2C[C@H]3CC[C@@H]2[C@@H]3N)cc2nc(-c3cc4cccc(C5CN(C(=O)Nc6ccccc6)C5)c4n3CC3CC3)n(C)c12 [Example 228, 3-(2-(5-((1R,4R,7R)-7-amino-2-azabicyclo[2.2.1]heptane-2-carbonyl)-7-methoxy-1-methyl-1H-benzo[d]imidazol-2-yl)-1-(cyclopropylmethyl)-1H-indol-7-yl)-N-phenylazetidine-1-carboxamide] | 0.041
10 | COc1cc(C(=O)N2C[C@H]3CC[C@@H]2[C@@H]3N)cc2nc(-c3cc4cccc(-c5ccc(CNC(C)=O)cc5)c4n3CC3CC3)n(C)c12 [Example 89, N-{[4-(2-{5-[(1R,4R,7R)-7-amino-2-azabicyclo[2.2.1]heptane-2-carbonyl]-7-methoxy-1-methyl-1H-1,3-benzodiazol-2-yl}-1-(cyclopropylmethyl)-1H-indol-7-yl)phenyl]methyl}acetamide] | 0.108
11 | COc1cc(C(=O)N2C[C@H]3CC[C@@H]2[C@@H]3N)cc2nc(-c3cc4cccc(CCc5c(C)n[nH]c5C)c4n3CC3CC3)n(C)c12 [Example 33, (1R,4R,7R)-2-{2-[1-(cyclopropylmethyl)-7-[2-(3,5-dimethyl-1H-pyrazol-4-yl)ethyl]-1H-indol-2-yl]-7-methoxy-1-methyl-1H-1,3-benzodiazole-5-carbonyl}-2-azabicyclo[2.2.1]heptan-7-amine] | 0.129

The remaining lines, values ahead:

Row | IC50 [µM] | Compound
12 | 0.077 | COc1cc(C(=O)N2C[C@H](N)C[C@@H](F)C2)cc2nc(-c3cc4cccc(C5CCN(C(C)=O)CC5)c4n3CC3CC3)n(C)c12 [Example 227, 1-(4-(2-(5-((3R,5R)-3-amino-5-fluoropiperidine-1-carbonyl)-7-methoxy-1-methyl-1H-benzo[d]imidazol-2-yl)-1-(cyclopropylmethyl)-1H-indol-7-yl)piperidin-1-yl)ethan-1-one]
13 | 0.07 | COc1cc(C(=O)N2C[C@H](N)C[C@@H](F)C2)cc2nc(-c3cc4cccc(-c5ccc6c(c5)CC(=O)N6)c4n3CC3CC3)n(C)c12 [Example 207, 5-(2-(5-((3R,5R)-3-amino-5-fluoropiperidine-1-carbonyl)-7-methoxy-1-methyl-1H-benzo[d]imidazol-2-yl)-1-(cyclopropylmethyl)-1H-indol-7-yl)indolin-2-one]
14 | 0.005 | COc1cc(C(=O)N2C[C@H]3CC[C@@H]2[C@@H]3N)cc2nc(-c3cc4cccc(C5CN(C(=O)Cc6ccncc6)C5)c4n3CC3CC3)n(C)c12 [Example 73, 1-[3-(2-{5-[(1R,4R,7R)-7-amino-2-azabicyclo[2.2.1]heptane-2-carbonyl]-7-methoxy-1-methyl-1H-1,3-benzodiazol-2-yl}-1-(cyclopropylmethyl)-1H-indol-7-yl)azetidin-1-yl]-2-(pyridin-4-yl)ethan-1-one]
15 | 0.123 | COc1cc(C(=O)N2C[C@H]3CC[C@@H]2[C@@H]3N)cc2nc(-c3cc4cccc(Cl)c4n3CC3CC3)n(C)c12 [Example 145, ((1R,4R,7R)-7-amino-2-azabicyclo[2.2.1]heptan-2-yl)(2-(7-chloro-1-(cyclopropylmethyl)-1H-indol-2-yl)-7-methoxy-1-methyl-1H-benzo[d]imidazol-5-yl)methanone]
16 | 0.008 | COc1cc(C(=O)N2C[C@H]3CC[C@@H]2[C@@H]3N)cc2nc(-c3cc4cccc(C5CCN(C(=O)NC6CC6)CC5)c4n3CC3CC3)n(C)c12 [Example 249, 4-(2-(5-((1R,4R,7R)-7-amino-2-azabicyclo[2.2.1]heptane-2-carbonyl)-7-methoxy-1-methyl-1H-benzo[d]imidazol-2-yl)-1-(cyclopropylmethyl)-1H-indol-7-yl)-N-cyclopropylpiperidine-1-carboxmaide]
17 | 0.05 | COc1cc(C(=O)N2C[C@H]3CC[C@@H]2[C@@H]3N)cc2nc(-c3cc4cccc(C5CC(C(=O)N(C)C)C5)c4n3CC3CC3)n(C)c12 (single isomer, unassigned) [Example 48]
18 | 0.081 | COc1cc(C(=O)N2C[C@H](N)C[C@@H](F)C2)cc2nc(-c3cc4cccc(C5CC(C(N)=O)C5)c4n3CC3CC3)n(C)c12 (single isomer, unassigned) [Example 114]
19 | 0.104 | COc1cc(C(=O)N2C[C@H]3CC[C@@H]2[C@@H]3N)cc2nc(-c3cc4cccc(C5CCN(C(=O)C(C)OC)CC5)c4n3CC3CC3)n(C)c12 (stereo partly drawn) [Example 238, 1-(4-(2-(5-((1R,4R,7R)-7-amino-2-azabicyclo[2.2.1]heptane-2-carbonyl)-7-methoxy-1-methyl-1H-benzo[d]imidazol-2-yl)-1-(cyclopropylmethyl)-1H-indol-7-yl)piperidin-1-yl)-2-methoxypropan-1-one]

Same assay, conditions: human PAD4, rapid-fire mass spectrum (RFMS) assay; 5 nM hPAD4, 250 μM BAEE; read-out: hPAD4 RFMS IC50

Row | IC50 [µM] | Compound
20 | 0.074 | COc1cc(C(=O)N2C[C@H]3CC[C@@H]2[C@@H]3N)cc2nc(-c3cc4cccc(C(N)=O)c4n3CC3CC3)n(C)c12 [Example 184, 2-(5-((1R,4R,7R)-7-Amino-2-azabicyclo[2.2.1]heptane-2-carbonyl)-7-methoxy-1-methyl-1H-benzo[d]imidazol-2-yl)-1-(cyclopropylmethyl)-1H-indole-7-carboxamide]
21 | 0.02 | CNC(=O)C1CC(c2cccc3cc(-c4nc5cc(C(=O)N6C[C@H]7CC[C@@H]6[C@@H]7N)cc(OC)c5n4C)n(CC4CC4)c23)C1 (single isomer, unassigned) [Example 43]
